Columns and labels:
[1] = target: T1, Human soluble guanylate cyclase enzyme (hsGC) (Homo sapiens (Human), UniProt Q02108+Q02153); test: Purified human sGC enzyme synergy assay in the presence of 1 μM sodium nitroprusside (SNP); assay type: biochemical; settings: with 1 μM SNP; for sGC Enzyme (fold increase at 10 μM with SNP): 10 μM compound; for sGC Enzyme (fold increase at 30 μM with SNP): 30 μM compound
In short: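 Purified human sGC (5 ng) incubated 30 min at 37 °C with compounds at 10 or 30 μM, 1 μM sodium nitroprusside, 300 μM GTP and 1 mM IBMX in Tris pH 8.0 with MgCl2/DTT. cGMP quantified against a standard curve, and specific activity expressed as fold-change over DMSO control.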

[2] = target: T2, soluble guanylate cyclase (sGC) (Homo sapiens (Human), UniProt Q02108+Q02153); test: sGC-HEK-cGMP assay run in the absence of SNP (HEK WC assay); assay type: cell-based; settings: no SNP, increase in the sGC receptor activity; for HEK WC Assay (fold increase at 10 μM): compound at 10 μM; for HEK WC Assay (fold increase at 30 μM): compound at 30 μM
T2 sequence (Q02153 whole entry): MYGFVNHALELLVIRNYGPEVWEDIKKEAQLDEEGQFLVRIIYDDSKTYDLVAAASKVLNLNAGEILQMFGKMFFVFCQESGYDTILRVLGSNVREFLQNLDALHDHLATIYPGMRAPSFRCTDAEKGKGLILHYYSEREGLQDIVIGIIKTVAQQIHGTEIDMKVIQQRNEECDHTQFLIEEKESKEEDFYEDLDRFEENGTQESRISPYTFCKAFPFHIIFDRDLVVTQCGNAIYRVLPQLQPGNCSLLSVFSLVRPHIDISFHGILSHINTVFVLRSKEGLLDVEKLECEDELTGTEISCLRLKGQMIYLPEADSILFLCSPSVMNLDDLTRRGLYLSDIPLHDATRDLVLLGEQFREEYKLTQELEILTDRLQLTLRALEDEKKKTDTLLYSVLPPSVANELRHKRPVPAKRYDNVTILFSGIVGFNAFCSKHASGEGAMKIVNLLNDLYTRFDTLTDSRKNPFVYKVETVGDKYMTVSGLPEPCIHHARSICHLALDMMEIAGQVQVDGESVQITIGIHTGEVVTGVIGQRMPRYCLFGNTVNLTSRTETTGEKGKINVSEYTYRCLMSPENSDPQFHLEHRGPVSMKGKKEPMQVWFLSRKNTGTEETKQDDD
T2 sequence (Q02108 whole entry): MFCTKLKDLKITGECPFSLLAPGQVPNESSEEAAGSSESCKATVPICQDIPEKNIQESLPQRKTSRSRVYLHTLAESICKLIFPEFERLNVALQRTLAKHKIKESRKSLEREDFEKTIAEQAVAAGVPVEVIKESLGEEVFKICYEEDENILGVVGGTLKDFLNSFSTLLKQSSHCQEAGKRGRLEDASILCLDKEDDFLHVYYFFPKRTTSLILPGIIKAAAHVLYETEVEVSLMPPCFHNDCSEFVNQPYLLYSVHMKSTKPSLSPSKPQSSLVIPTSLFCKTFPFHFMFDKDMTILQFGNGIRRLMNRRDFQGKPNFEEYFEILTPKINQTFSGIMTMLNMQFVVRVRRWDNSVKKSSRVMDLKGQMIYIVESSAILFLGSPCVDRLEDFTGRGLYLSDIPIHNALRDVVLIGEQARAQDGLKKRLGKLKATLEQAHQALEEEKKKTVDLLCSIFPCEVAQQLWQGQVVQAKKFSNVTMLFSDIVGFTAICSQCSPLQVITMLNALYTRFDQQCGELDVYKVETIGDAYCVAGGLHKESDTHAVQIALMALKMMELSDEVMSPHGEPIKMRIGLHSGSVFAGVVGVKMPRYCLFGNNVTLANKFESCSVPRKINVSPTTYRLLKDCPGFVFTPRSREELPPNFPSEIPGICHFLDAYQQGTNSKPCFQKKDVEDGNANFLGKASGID
In short: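 HEK293 cells with endogenous sGC, preincubated 15 min at 37° C with 0.5 mM IBMX, then exposed to test compound 10 min at 37° C without SNP. Cells lysed in 0.1 M HCl; cGMP quantified by LC/MS against a standard curve. EC50 from concentration-response curves.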

Thoracic aortic rings = Thoracic aortic rings assay (Example 19a; IBMX as 100% inhibition); settings: compound at 10 μM; rat thoracic aortic rings contracted with 100 ng/mL phenylephrine; read-out: Percent Relaxation at 10 μM
Method: Thoracic aortic rings were dissected from anesthetized (isoflurane) male Sprague-Dawley rats weighing 275-299 g. Tissues were immediately transferred to ice-cold Krebs-Henseleit solution, which had been aerated with 95% O2 and 5% CO2 for 30 minutes. Following removal of connective tissue, aortic sections were cut into 4 rings (˜2 mm each) and suspended on 2 L-shaped hooks, with one hook fixed at the bottom of the tissue bath (Schuler Organ Bath, Harvard Apparatus) and the other connected to a force transducer (F30 Force Transducer, Harvard Apparatus). Baths contained Krebs Henseleit solution (10 mL) heated to 37° C. and aerated with 95% O2 and 5% CO2. Rings were brought to an initial tension of 0.3-0.5 g and gradually raised to a resting tension of 1.0 g over 60 minutes. Rings were rinsed with Krebs Henseleit solution (heated to 37° C. and aerated with 95% O2 and 5% CO2) at 15 minute intervals until a stable baseline was obtained. Rings were considered to be stable after a resting tension of 1.0 g was maintained (for approximately 10 minutes) without need for adjustment. Rings were then contracted with 100 ng/mL phenylephrine by adding 100 uL of a 10 μg/mL phenylephrine stock solution. Tissues achieving a stable contraction were then treated in a cumulative, dose dependent manner with test compounds prepared in dimethylsulfoxide (DMSO). In some cases, tissues were rinsed three times over a 5 minute period with Krebs-Heinseleit's solution (heated to 37° C. and aerated with 95% O2 and 5% CO2), allowed to stabilize at baseline, and then used for characterization of other test articles or DMSO effects. All data were collected using the HSE-ACAD software provided by Harvard Apparatus. […] EC50 values were calculated from concentration-response curves generated with GraphPad Prism Software.

[3] = target: T1, Human soluble guanylate cyclase enzyme (hsGC); test: Purified human sGC enzyme activity assay; assay type: biochemical; settings: for sGC Enzyme (specific activity at 10 μM) / sGC Enzyme (fold increase at 10 μM without SNP): 10 μM compound; for sGC Enzyme (fold increase at 30 μM without SNP) / sGC Enzyme (specific activity at 30 μM): 30 μM compound
In short: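 Purified human sGC (5 ng) incubated 30 min at 37° C with compound at 10 or 30 μM final in pH 8.0 Tris with 300 μM GTP, 2 mM MgCl2, 2 mM DTT and 1 mM IBMX, then stopped with cold methanol. cGMP quantified against a standard curve. Specific activity (nmol cGMP/mg sGC/min) expressed as fold-change over DMSO control.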

[4] = target: T2, soluble guanylate cyclase (sGC); test: sGC-HEK-cGMP assay run with SNP incubation (HEK WC assay); assay type: cell-based; settings: for Emax at 10 µM: read-out: HEK WC Assay (% Emax at 10 uM/with 10 uM SNP); for Emax at 30 µM: read-out: HEK WC Assay (% Emax at 30 uM/with 10 uM SNP)
In short: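 HEK293 cells with endogenous sGC were pretreated with 0.5 mM IBMX for 15 min at 37 °C, then exposed to test compound plus sodium nitroprusside for 10 min at 37 °C.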

T1 sequence (Q02153 whole entry): as the sequence (Q02153 whole entry) above
T1 sequence (Q02108 whole entry): as the sequence (Q02108 whole entry) above

Structure (SMILES) | sGC Enzyme (fold increase at 10 μM with SNP) [1] | sGC Enzyme (fold increase at 30 μM with SNP) [1] | HEK WC Assay (fold increase at 10 μM) [2] | HEK WC Assay (fold increase at 30 μM) [2] | inhibition at 10 µM (Thoracic aortic rings) [%] | sGC Enzyme (specific activity at 10 μM) [3] | sGC Enzyme (fold increase at 10 μM without SNP) [3] | sGC Enzyme (fold increase at 30 μM without SNP) [3] | Emax at 10 µM [4] [%] | Emax at 30 µM [4] [%] | sGC Enzyme (specific activity at 30 μM) [3]
N#Cc1cc(-c2ccccn2)nn1Cc1ccccc1F [Compound I-3] | C (C = 5 to <10 fold increase) | C (C = 5 to <10 fold increase) | A (A = no increase to <1 fold increase) | D (D = 5 to <10 fold increase) | 92 | D (D = 200 to <500) | B (B = 2 to <5 fold increase) | C (C = 5 to <10 fold increase) | 20 to 40 | 40 to 60 | –
Fc1ccccc1Cn1nc(-c2ncccn2)cc1-c1ccsc1 [Compound I-4] | B (B = 2 to <5 fold increase) | C (C = 5 to <10 fold increase) | A (A = no increase to <1 fold increase) | D (D = 5 to <10 fold increase) | 102 | E (E = 500 to <1000) | B (B = 2 to <5 fold increase) | C (C = 5 to <10 fold increase) | 10 to 20 | 20 to 40 | E (E = 500 to <1000)
Fc1ccccc1Cn1nc(-c2ccccn2)cc1-c1ccccc1 [Compound I-5] | B (B = 2 to <5 fold increase) | B (B = 2 to <5 fold increase) | A (A = no increase to <1 fold increase) | A (A = no increase to <1 fold increase) | 55.6 | D (D = 200 to <500) | B (B = 2 to <5 fold increase) | B (B = 2 to <5 fold increase) | 0 to 10 | 10 to 20 | D (D = 200 to <500)
COc1cccc(-c2cc(-c3ncccn3)nn2Cc2ccccc2F)n1 [Compound I-6] | B (B = 2 to <5 fold increase) | D (D = equal or >10 fold increase) | B (B = 1 to <2 fold increase) | C (C = 2 to <5 fold increase) | 102 | D (D = 200 to <500) | B (B = 2 to <5 fold increase) | B (B = 2 to <5 fold increase) | 20 to 40 | 20 to 40 | D (D = 200 to <500)
Nc1ccnc(-c2cc(-c3ccccn3)n(Cc3ccccc3F)n2)n1 [Compound I-31] | B (B = 2 to <5 fold increase) | C (C = 5 to <10 fold increase) | – | – | 93.2 | C (C = 100 to <200) | A (A = no increase to <2 fold increase) | B (B = 2 to <5 fold increase) | 0 to 10 | 10 to 20 | C (C = 100 to <200)
Fc1ccccc1Cn1nc(-c2ncccn2)cc1-c1nccs1 [Compound I-33] | – | D (D = equal or >10 fold increase) | B (B = 1 to <2 fold increase) | C (C = 2 to <5 fold increase) | 110 | C (C = 100 to <200) | A (A = no increase to <2 fold increase) | C (C = 5 to <10 fold increase) | 20 to 40 | 40 to 60 | D (D = 200 to <500)
Fc1ccccc1Cn1nc(-c2ccccn2)cc1C1CCC1 [Compound I-42] | B (B = 2 to <5 fold increase) | C (C = 5 to <10 fold increase) | – | – | 72.1 | D (D = 200 to <500) | B (B = 2 to <5 fold increase) | C (C = 5 to <10 fold increase) | 0 to 10 | 10 to 20 | E (E = 500 to <1000)
Fc1ccccc1Cn1nc(-c2ccccn2)cc1-c1nnco1 [Compound I-45] | C (C = 5 to <10 fold increase) | D (D = equal or >10 fold increase) | – | – | 94.9 | C (C = 100 to <200) | A (A = no increase to <2 fold increase) | B (B = 2 to <5 fold increase) | 20 to 40 | 20 to 40 | C (C = 100 to <200)
Fc1ccccc1Cn1nc(-c2ccccn2)cc1-c1ccco1 [Compound I-61] | D (D = equal or >10 fold increase) | D (D = equal or >10 fold increase) | – | – | 103 | C (C = 100 to <200) | B (B = 2 to <5 fold increase) | C (C = 5 to <10 fold increase) | 20 to 40 | 20 to 40 | D (D = 200 to <500)
Fc1ccccc1Cn1nc(-c2ncccn2)cc1-c1cccs1 [Compound I-66] | C (C = 5 to <10 fold increase) | D (D = equal or >10 fold increase) | – | – | 103 | B (B = 50 to <100) | B (B = 2 to <5 fold increase) | C (C = 5 to <10 fold increase) | 20 to 40 | 20 to 40 | C (C = 100 to <200)

Reference: patent publication US10189809B2, “SGC stimulators” (Ironwood Pharmaceuticals, Inc., priority 2010, dated 2019)
